# Data reported in patent US20210052608A1, “METHODS OF TREATING BACTERIAL INFECTIONS WITH MINOCYCLINE” (Melinta Therapeutics, Inc., priority 2018, published 2021).
# Entries after “also recorded” stand apart in the source; their conditions may differ.
# Tests used:
# [1] = Plasma pharmacokinetics of minocycline, twice-daily ascending dose (MAD) phase, loading dose then BID dosing for 7 days; set-up: species or system human (healthy adult subjects); conditions: human, in vivo; for AUC(0-t): AUC0-t; for clearance: Cl (plasma clearance); for Vd: Vss (volume of distribution at steady state); for half-life: mean; for Cmax: iv
# Experimental: (§1) This example describes outcomes among healthy adult subjects in a randomized, double-blind, placebo-controlled, single- and multiple ascending dose (SAD/MAD) study of 6 intravenous doses (cohorts) ranging from 100 mg to 600 mg of minocycline. […] Within each cohort, subjects received a single dose on Day 1, followed by a loading dose on Day 4, then 7 days of twice-daily dosing (Days 4-10), followed by a single dose on Day 11 as shown in Table 1. Within each cohort, subjects were randomly assigned to minocycline (n=8) or normal saline placebo (n=2). Serial blood and urine samples were collected for pharmacokinetic assessment. All infusions were administered over 1 hour. Plasma samples were obtained at 1 (end-of-infusion), 2, 4, 8, 12, 18, 24, 36, 48, and 72 hours after the start of dosing after single or multiple doses and assayed for minocycline content using a validated HPLC/MS method. Concentration of minocycline in healthy volunteers after a one hour IV infusion is shown in FIG. 1, while concentration of minocycline in healthy volunteers after a loading dose then twice daily dosing for seven days is shown in FIG. 2.
# [2] = Plasma pharmacokinetics of minocycline, single ascending dose (SAD) phase, 1 hour intravenous infusion; set-up: species or system human (healthy adult subjects); conditions: human, in vivo; for half-life: mean, N=8
# Experimental: as §1
# [3] = Safety and tolerability (adverse events) in the SAD/MAD study of intravenous minocycline; type: in vivo, human (healthy adult subjects)
# Experimental: This example describes outcomes among healthy adult subjects in a randomized, double-blind, placebo-controlled, single- and multiple ascending dose (SAD/MAD) study of 6 intravenous doses (cohorts) ranging from 100 mg to 600 mg of minocycline. Each cohort consisted of 10 subjects (8 active drug and 2 placebo). Within each cohort, subjects received a single dose on Day 1, followed by a loading dose on Day 4, then 7 days of twice-daily dosing (Days 4-10), followed by a single dose on Day 11 as shown in Table 1. Within each cohort, subjects were randomly assigned to minocycline (n=8) or normal saline placebo (n=2). Serial blood and urine samples were collected for pharmacokinetic assessment.
# Safety was assessed throughout the study. Of the adverse events (AE) observed in more than 10% of subjects, the vast majority were assessed by the investigator as likely to be related to study drug (Table 5). A total of 21 subjects out of 57 discontinued the trial. Six of 10 subjects in cohort 4 discontinued during the MAD portion (400 mg BID) of the trial due to mild to moderate dizziness. Dosing was discontinued in the remaining 4 subjects in that cohort and cohorts 5 and 6 were limited to 300 mg BID for the MAD portion of the trial. Four subjects in cohort 6 (600 mg/300 mg) discontinued due to nausea.
# [4] = Plasma pharmacokinetics of minocycline, single ascending dose (SAD) phase, 1 hour intravenous infusion; set-up: species or system human (healthy adult subjects); conditions: human, in vivo; single 600 mg IV dose, mean, N=9
smiles,measurement,setting,value
CN(C)c1ccc(O)c2c1C[C@H]1C[C@H]3[C@H](N(C)C)C(O)=C(C(N)=O)C(=O)[C@@]3(O)C(O)=C1C2=O [minocycline],AUC(0-t),[1]; 100 mg,27500 ng·h/mL
same,clearance,[1]; 100 mg,58.2 mL/min
same,Vd,[1]; 100 mg,72 L
same,half-life,"[1]; 100 mg, single dose 100 mg, BID dosing 100 mg, N=6",15.9 h
same,AUC(0-t),[1]; 200 mg,80700 ng·h/mL
same,clearance,[1]; 200 mg,41.3 mL/min
same,Vd,[1]; 200 mg,58.4 L
same,half-life,"[1]; 200 mg, single dose 200 mg, BID dosing 200 mg, N=6",18.2 h
same,AUC(0-t),[1]; 300 mg,174000 ng·h/mL
same,clearance,[1]; 300 mg,32 mL/min
same,Vd,[1]; 300 mg,47 L
same,half-life,"[1]; 300 mg, single dose 300 mg, BID dosing 300 mg, N=7",19.8 h
same,half-life,"[1]; 300 mg, single dose 500 mg, BID dosing 300 mg, N=7",18.1 h
same,half-life,"[1]; 300 mg, single dose 600 mg, BID dosing 300 mg, N=4",20.2 h
same,half-life,"[1]; 300 mg, single dose 300, 500, or 600 mg (pooled), BID dosing 300 mg, N=18",19.2 h
same,clearance,[1],44 mL/min
same,Vd,[1],58.1 L
same,Cmax,[1]; 100 mg,1710 ng/mL
same,Cmax,[1]; 200 mg,4590 ng/mL
same,Cmax,[1]; 300 mg,8910 ng/mL
same,Dose proportionality of exposure,[2]; iv,increased in a dose proportional fashion with exception of the 500 mg dose
same,AUC(0-inf),"[2]; iv, 100 mg",9730 ng·h/mL
same,clearance,"[2]; iv, 100 mg",175 mL/min
same,AUC(0-inf),"[2]; iv, 200 mg",25900 ng·h/mL
same,clearance,"[2]; iv, 200 mg",137 mL/min
same,AUC(0-inf),"[2]; iv, 300 mg",39200 ng·h/mL
same,clearance,"[2]; iv, 300 mg",138 mL/min
same,AUC(0-inf),"[2]; iv, 400 mg",63600 ng·h/mL
same,clearance,"[2]; iv, 400 mg",112 mL/min
same,AUC(0-inf),"[2]; iv, 500 mg",53800 ng·h/mL
same,clearance,"[2]; iv, 500 mg",171 mL/min
same,AUC(0-inf),"[2]; iv, 600 mg",83000 ng·h/mL
same,clearance,"[2]; iv, 600 mg",135 mL/min
same,half-life,[2]; single 100 mg IV dose,11.1 h
same,half-life,[2]; single 200 mg IV dose,13.7 h
same,half-life,[2]; single 300 mg IV dose,16.6 h
same,half-life,[2]; single 400 mg IV dose,17.6 h
same,half-life,[2]; single 500 mg IV dose,14.4 h
same,Maximum tolerated multi-dose,"[3]; administered twice daily, IV",300 mg
same,Subjects discontinued due to nausea in cohort 6,[3]; cohort 6 (600 mg/300 mg),Four
same,"Subjects reporting study drug related adverse events, %","[3]; human, in vivo",79.9%
same,"Subjects who discontinued the trial, total","[3]; human, in vivo",21
same,"Subjects with dizziness, %","[3]; human, in vivo",59.4%
same,"Subjects with dizziness, number","[3]; human, in vivo",41
same,"Subjects with moderate nausea and/or dizziness, number","[3]; human, in vivo",9
same,"Subjects with nausea, %","[3]; human, in vivo",50.7%
same,"Subjects with nausea, number","[3]; human, in vivo",35
same,Subjects discontinued from study drug in the 400 mg cohort (cohort 4),"[3]; human, in vivo, 7 days",6
same,Tolerability of single intravenous doses,[3]; single IV doses up to 600 mg,tolerated reasonably well
same,Serious adverse events,"[3]; whole SAD/MAD study, 100 mg to 600 mg IV",No serious adverse events occurred; also recorded: No serious adverse events (SAEs) were reported
same,Most common adverse effects,[3]; whole study,mild nausea and dizziness
same,half-life,[4],17.3 h
